Here are results for 14 molecules from paper PMC6273473 (Molecules, 2016).

Series [1] has as its target T1, electric eel AChE (eeAChE) (Electrophorus electricus, UniProt O42275).
T1 construct: purchased Sigma Aldrich, Milan, Italy
As to the kind of experiment: biochemical.

In series [2] the target is T2, rMAO-B (Rattus norvegicus, UniProt P19643).
T2 construct: from tissue; host or cells: rat brain mitochondrial homogenate
T2 sequence (P19643 1-520): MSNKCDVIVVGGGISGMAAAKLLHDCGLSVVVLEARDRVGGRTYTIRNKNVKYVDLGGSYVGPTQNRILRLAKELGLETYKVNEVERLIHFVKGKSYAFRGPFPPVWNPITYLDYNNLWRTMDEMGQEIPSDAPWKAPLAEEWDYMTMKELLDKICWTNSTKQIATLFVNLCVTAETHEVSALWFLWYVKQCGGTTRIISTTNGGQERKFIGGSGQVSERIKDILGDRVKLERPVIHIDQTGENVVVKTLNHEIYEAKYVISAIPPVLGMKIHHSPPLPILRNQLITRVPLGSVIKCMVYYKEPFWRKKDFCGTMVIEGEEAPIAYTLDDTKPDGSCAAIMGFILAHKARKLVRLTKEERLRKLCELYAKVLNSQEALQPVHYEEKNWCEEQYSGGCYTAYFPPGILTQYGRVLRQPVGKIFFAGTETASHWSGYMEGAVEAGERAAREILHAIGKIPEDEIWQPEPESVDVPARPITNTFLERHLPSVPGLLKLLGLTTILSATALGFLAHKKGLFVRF
As to the kind of experiment: rat MAO-B inhibition, kynuramine spectrophotometric assay. The class given is biochemical. The settings on record: for inhibition at 10 µM: read-out: MAO-B % inhibition at 10 µM.
Method: (§1) MAO inhibitory activities were measured on rat brain mitochondrial homogenates [21].
(§2) The rMAO inhibitory activity of compounds in Table 1 was assessed using a continuous spectrophotometric assay [28], monitoring the rate of oxidation of the nonselective nonfluorescent MAO substrate kynuramine to 4-hydroxyquinoline, as previously reported [21]. […] Finally, IC50 values were determined by nonlinear regression of MAO inhibition vs. -log of the concentration plots, using the program Origin, Version 6.0 (Microcal Software Inc., Northampton, MA, USA).

Series [3] addresses T3, rMAO-A (Rattus norvegicus, UniProt P21396).
T3 construct: from tissue; host or cells: rat brain mitochondrial homogenate
T3 sequence (P21396 1-526): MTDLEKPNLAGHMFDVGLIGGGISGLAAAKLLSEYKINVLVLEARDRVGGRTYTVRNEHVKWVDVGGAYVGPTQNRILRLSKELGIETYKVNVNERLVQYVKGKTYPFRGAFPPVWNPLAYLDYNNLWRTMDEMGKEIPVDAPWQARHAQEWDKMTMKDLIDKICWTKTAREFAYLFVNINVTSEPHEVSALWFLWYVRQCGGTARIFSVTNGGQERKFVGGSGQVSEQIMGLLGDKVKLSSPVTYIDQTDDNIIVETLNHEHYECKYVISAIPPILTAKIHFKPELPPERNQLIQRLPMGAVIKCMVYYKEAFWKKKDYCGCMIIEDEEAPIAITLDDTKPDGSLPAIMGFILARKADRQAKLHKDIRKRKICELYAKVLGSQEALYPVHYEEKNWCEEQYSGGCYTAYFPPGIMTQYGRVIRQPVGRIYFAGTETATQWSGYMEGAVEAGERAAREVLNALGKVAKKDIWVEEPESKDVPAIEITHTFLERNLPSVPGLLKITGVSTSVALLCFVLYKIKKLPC
As to the kind of experiment: rat MAO-A inhibition, kynuramine spectrophotometric assay. Type of series: biochemical. The settings on record: rat brain homogenates; for inhibition at 10 µM: read-out: MAO-A % inhibition at 10 µM.
Method: as §1, §2

Series [4] addresses T4, equine serum butyrylcholinesterase (esBChE) (Equus caballus, UniProt P81908).
T4 construct: BChE from equine serum (13 U/mg; Sigma); purchased Sigma; host or cells: equine serum
As to the kind of experiment: BChE inhibition, Ellman's method. Type of series: biochemical. The settings on record: read-out: BChE % inhibition at 10 µM.
Method: 2H-Chromen-2-ones 3a–m and 8 were evaluated as inhibitors of electric eel AChE (eeAChE), equine serum butyrylcholinesterase (esBChE) and rat MAOs (rMAO-A and rMAO-B). In vitro enzymatic assays on ChEs were accomplished through the well-known spectrophotometric Ellman’s method [20].

In series [5] the test system is MDCKII-MDR1 cells.
Series [6] deals with SH-SY5Y cells. As to the kind of experiment: Neuroprotection against oxidative stress insults, MTT assay. The class given is cell-based, human. (In general: Tetrazolium dyes change colour on reduction, which living cells bring about.)
Method: Therefore, a preliminary evaluation of the cytotoxicity and neuroprotective efficacy of this hit compound was undertaken in the human SH-SY5Y neuroblastoma cell line by following the 3-(4,5-dimethylthiazol-2-yl)-2,5-diphenyl-tetrazolium bromide (MTT) assay [22].
Human neuroblastoma SH-SY5Y cells were dispensed into 96-well microtiter plates at a density of 10,000 cells/well. […] The cell viability was determined by the MTT assay and analyzed as above described. Each compound was tested in triplicate, and the experiments were repeated three times. Statistical significance was assigned to p < 0.01 and calculated using a one-way analysis of variance (ANOVA) followed by the Bonferroni post hoc tests (GraphPad Prism vers. 5).
Results are expressed as the percentage of viable cells, and data represent the means ± SD (n = 3).
Series [7] deals with P-gp (MDR1). As to the kind of experiment: in vitro. As to conditions: dog, MDCK-MDR1, pH 7.4.
Series [8] deals with SH-SY5Y cells. As to the kind of experiment: Cytotoxicity, MTT assay. The class given is cell-based. The settings on record: 24 h incubation, 0.1–50 µM.
Method: Human neuroblastoma cells SH-SY5Y were maintained at 37 °C in a humidified incubator containing 5% CO2 in DMEM nutrient (Lonza) supplemented with 10% heat inactivated FBS, 2 mM L-glutamine, 100 U/mL penicillin and 100 µg/mL streptomycin. Cells were dispensed into 96-well microtiter plates at a density of 10,000 cells/well. […] Then, the plates were incubated at 37 °C for 24 h. An amount of 10 µL of 0.5% w/v MTT was further added to each well, and the plates were incubated for an additional 3 h at 37 °C. Finally, the cells were lysed by the addition of 100 µL of DMSO/EtOH 1:1 (v/v) solution.
Untreated cells were used as the control.
Where [9] appears, read: from electric eel, read-out: AChE IC50.
Setting [10] is: determined after 30 min pre-incubation.

Several values for one entry are separate records, joined by “and”; a condition that tells them apart may be missing. Equal entries are not always repeated. Entries after “also recorded” stand apart in the source; their conditions may differ. Structures can show the parent of a compound that is named as a salt. Where two headings read alike, the source gives them in different places.

T1 sequence (O42275 24-633): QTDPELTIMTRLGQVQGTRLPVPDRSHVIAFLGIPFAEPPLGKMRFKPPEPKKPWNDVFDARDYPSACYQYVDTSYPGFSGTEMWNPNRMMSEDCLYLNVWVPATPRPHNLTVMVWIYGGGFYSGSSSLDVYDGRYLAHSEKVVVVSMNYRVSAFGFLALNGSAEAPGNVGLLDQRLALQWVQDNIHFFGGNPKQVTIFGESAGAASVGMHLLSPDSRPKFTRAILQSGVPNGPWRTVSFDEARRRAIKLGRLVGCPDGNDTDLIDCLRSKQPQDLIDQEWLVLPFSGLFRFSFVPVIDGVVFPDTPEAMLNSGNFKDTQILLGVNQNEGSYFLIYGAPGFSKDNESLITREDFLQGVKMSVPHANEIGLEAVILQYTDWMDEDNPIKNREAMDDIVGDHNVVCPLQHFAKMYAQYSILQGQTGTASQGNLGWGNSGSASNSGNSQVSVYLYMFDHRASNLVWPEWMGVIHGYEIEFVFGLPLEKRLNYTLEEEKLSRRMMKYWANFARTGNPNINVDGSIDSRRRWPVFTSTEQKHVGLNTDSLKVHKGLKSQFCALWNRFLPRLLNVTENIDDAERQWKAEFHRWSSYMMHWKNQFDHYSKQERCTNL
T4 sequence (P81908 whole entry): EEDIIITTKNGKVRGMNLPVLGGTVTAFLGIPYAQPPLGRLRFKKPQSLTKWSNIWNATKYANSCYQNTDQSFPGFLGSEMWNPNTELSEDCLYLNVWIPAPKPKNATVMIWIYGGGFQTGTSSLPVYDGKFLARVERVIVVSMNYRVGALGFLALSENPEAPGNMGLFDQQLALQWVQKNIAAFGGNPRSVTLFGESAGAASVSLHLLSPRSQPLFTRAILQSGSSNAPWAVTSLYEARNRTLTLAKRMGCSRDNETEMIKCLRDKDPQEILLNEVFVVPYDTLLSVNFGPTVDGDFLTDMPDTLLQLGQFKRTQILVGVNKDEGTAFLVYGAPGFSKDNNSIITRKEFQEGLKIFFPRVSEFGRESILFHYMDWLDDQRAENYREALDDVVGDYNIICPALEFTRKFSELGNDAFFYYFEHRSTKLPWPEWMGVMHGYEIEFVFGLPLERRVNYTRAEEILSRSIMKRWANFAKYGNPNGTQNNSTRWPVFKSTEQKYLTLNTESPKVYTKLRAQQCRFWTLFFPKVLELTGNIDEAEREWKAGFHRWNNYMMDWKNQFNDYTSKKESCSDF

For orientation: IC50 means the point on the concentration scale where inhibition reaches its midpoint. By inhibition is commonly meant the relative decrease from the control value, in per cent. As for `NC(=O)CNCc1cc2ccccc2oc1=O` [Compound 3a, N^2-[(2-oxo-2H-Chromen-3-yl)methyl]glycinamide], in series [1] (setting [9]), the IC50 worked out at 12 ± 1 µM. The inhibition at 10 µM in series [2] (rat brain homogenates) was under 5%; in series [3], under 5%; in series [4] (from equine serum, 10 µM), 6.2%.
Molecule `CN(Cc1cccc(F)c1)Cc1cc2ccccc2oc1=O` [Compound 3b, 3-{[(3-Fluorobenzyl)(methyl)amino]methyl}-2H-chromen-2-one hydrochloride] displayed an IC50 in series [1] (AChE IC50, from electric eel) of 6.8 ± 0.1 µM. The inhibition at 10 µM in series [2] (rat brain homogenates) was under 5%; in series [3], under 5%; in series [4] (from equine serum, 10 µM), 15%.
For the molecule `C#CCN(C)Cc1cc2ccccc2oc1=O` [Compound 3c, 3-{[Methyl(prop-2-yn-1-yl)amino]methyl}-2H-chromen-2-one], the IC50 in series [1] (setting [9]) came to 8.4 ± 0.5 µM; in series [2] (rat brain homogenates, determined after 30 min pre-incubation, read-out: MAO-B IC50), 0.377 ± 0.014 µM; in series [3] (setting [10]), 7 ± 1.4 µM. Moreover, the inhibition at 10 µM in series [4] (from equine serum, 10 µM) was under 5%.
On to `COc1ccc2cc(CN(C)Cc3cccc(F)c3)c(=O)oc2c1` [Compound 3d, 3-{[(3-Fluorobenzyl)(methyl)amino]methyl}-7-methoxy-2H-chromen-2-one], for which, in series [1] (setting [9]), the IC50 came to 6.6 ± 0.1 µM. Also, the inhibition at 10 µM in series [2] (rat brain homogenates) is under 5%; in series [3] it was 6%; in series [4] (from equine serum, 10 µM) it was 8.5%.
With `COc1ccc2cc(CN(C)Cc3cccc(C#N)c3)c(=O)oc2c1` [Compound 3e, 3-{[[(7-Methoxy-2-oxo-2H-chromen-3-yl)methyl](methyl)amino]methyl}benzonitrile], the IC50 in series [1] (setting [9]) is 8.4 ± 0.3 µM. Also, the inhibition at 10 µM was under 5% in series [2] (rat brain homogenates); 9.2% in series [3]; under 5% in series [4] (from equine serum, 10 µM).
On to `C#CCN(C)Cc1cc2ccc(OC)cc2oc1=O` [Compound 3f, 7-Methoxy-3-{[methyl(prop-2-yn-1-yl)amino]methyl}-2H-chromen-2-one hydrochloride], for which, in series [1] (AChE IC50, from electric eel), it took 14 ± 1 µM to reach half-maximal inhibition (IC50). Moreover, in series [4], the inhibition at 10 µM was 13%.
The molecule `COc1cc2cc(CN(C)Cc3cccc(Cl)c3)c(=O)oc2cc1OC` [Compound 3g, 3-{[(3-Chlorobenzyl)(methyl)amino]methyl}-6,7-dimethoxy-2H-chromen-2-one hydrochloride] came in with an IC50 in series [1] (AChE IC50, from electric eel) of 4.4 ± 1.1 µM. In addition, the inhibition at 10 µM in series [2] (rat brain homogenates) was under 5%; in series [3], 7%; in series [4] (from equine serum, 10 µM) it was 19%.
One may read the Papp A→B as how fast a substance crosses the layer from the apical side. By Papp B→A is commonly meant the apparent permeability from the basolateral to the apical side of a cell layer. Consider `C#CCN(C)Cc1cc2cc(OC)c(OC)cc2oc1=O.Cl` [Compound 3h, 6,7-Dimethoxy-3-{[methyl(prop-2-yn-1-yl)amino]methyl}-2H-chromen-2-one hydrochloride], for which the P-gp substrate result in series [5] is listed as “not likely to be a substrate for P-gp; also recorded: did not result in a glycoprotein-p (P-gp) substrate”. For the same molecule, the “Neuroprotection against oligomycin-A” value in series [6] (0.1 µM compound, oligomycin-A 30 µM, 24 h co-incubation) is “moderate neuroprotection; also recorded: promising neuroprotective effect”. In series [6] (0.1 µM compound, rotenone 75 µM, 24 h co-incubation), the Neuroprotection against rotenone entry is given as “moderate neuroprotection; also recorded: promising neuroprotective effect”. Also, the “Neuroprotection (cell survival)” value in series [6] (1 µM compound, 24 h co-incubation with H2O2 195 µM, oligomycin-A 30 µM or rotenone 75 µM) is “no increase of cell survival”. In addition, the IC50 is 8.99 µM and 9 µM in series [1] (AChE IC50, from electric eel); 0.0028 ± 0.0004 µM in series [2]. Besides, the Papp A→B at 120 min, 75 µM in series [7] worked out at 22.7 ×10⁻⁶ cm/s. This molecule had a Papp B→A at 120 min, 75 µM in series [7] of 21.8 ×10⁻⁶ cm/s. Besides, the “Cytotoxicity (viability of SH-SY5Y cells)” value in series [8] is listed as “negligible cytotoxicity; also recorded: low cytotoxicity”. The inhibition at 10 µM in series [3] (setting [10]) is under 5%; in series [4] (from equine serum, 10 µM), under 5%.
As to `CNCc1cc2cc(OC)c(OC)cc2oc1=O` [Compound 3i, 6,7-Dimethoxy-3-[(methylamino)methyl]-2H-chromen-2-one hydrochloride], in series [1] (AChE IC50, from electric eel), the IC50 was determined as 13 ± 1 µM. The inhibition at 10 µM in series [2] (rat brain homogenates) was under 5%; in series [3], under 5%; in series [4] (from equine serum, 10 µM) it was 10%.
With `COc1cc2cc(CNCc3ccccc3)c(=O)oc2cc1OC` [Compound 3j, 3-[(Benzylamino)methyl]-6,7-dimethoxy-2H-chromen-2-one], the IC50 in series [1] (setting [9]) is 2.78 µM and 2.8 µM. Also, the inhibition at 10 µM in series [2] (rat brain homogenates) was under 5%; in series [3] it was under 5%; in series [4] (from equine serum, 10 µM) it was 27%.
Take `COc1cc2cc(CNCc3ccc(C#N)cc3)c(=O)oc2cc1OC` [Compound 3k, 4-({[(6,7-Dimethoxy-2-oxo-2H-chromen-3-yl)methyl]amino}methyl)benzonitrile]: in series [1] (setting [9]), the IC50 turned out to be 8.4 ± 1.1 µM. For the same molecule, the inhibition at 10 µM was under 5% in series [2] (rat brain homogenates); 20% in series [3]; 13% in series [4] (from equine serum, 10 µM).
Taken in the same sequence, the figures for `COc1cc2cc(CNCC(N)=O)c(=O)oc2cc1OC` [Compound 3l, N^2-[(6,7-Dimethoxy-2-oxo-2H-chromen-3-yl)methyl]glycinamide] were 8 ± 1.2 µM, under 5%, under 5% and 10%.
Consider `CNC(=O)CNCc1cc2cc(OC)c(OC)cc2oc1=O` [Compound 3m, N^2-[(6,7-Dimethoxy-2-oxo-2H-chromen-3-yl)methyl]-N^1-methylglycinamide], for which, in series [1] (setting [9]), the IC50 came to 7.7 ± 0.4 µM. Also, the inhibition at 10 µM in series [2] (rat brain homogenates) is under 5%; in series [3] it was under 5%; in series [4] (from equine serum, 10 µM), 11%.
For the molecule `C#CCN(C)Cc1cc2cc(OC)c(O)cc2oc1=O` [Compound 8, 7-Hydroxy-6-methoxy-3-{[methyl(prop-2-yn-1-yl)amino]methyl}-2H-chromen-2-one], the IC50 in series [1] (setting [9]) came out at 9.3 ± 0.4 µM. Further, the inhibition at 10 µM was 11% in series [2] (rat brain homogenates, determined after 30 min pre-incubation); 35% in series [3] (setting [10]); under 5% in series [4] (from equine serum, 10 µM).
